The supplement of paper PMC11061612

Experiments:
Alisertib = compound: COc1cc(Nc2ncc3c(n2)-c2ccc(Cl)cc2C(c2c(F)cccc2OC)=NC3)ccc1C(=O)O [Alisertib]; details: max 10 µM
How it was run: (§1)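 Cancer cell lines were plated in 1536-well plates in 7.5 μl of DMEM/F12 or RPMI with 10% FBS and kept 24 hours at 37°C and 5% CO2 before 72 hours of dosing, with final DMSO typically 0.2%. CellTiter-Glo 2.0 luminescence measured viability, scaled between blank-well and DMSO-well means. Dose responses were fitted to a two-parameter logistic curve with a non-linear mixed effects model. This fit gives the single-agent IC50.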

SRA737 = compound: N#Cc1cnc(Nc2cc(NC[C@H]3CNCCO3)c(C(F)(F)F)cn2)cn1 [SRA737]; details: max 10 µM
How it was run: as §1

AZD0156 = compound: CN(C)CCCOc1ccc(-c2ccc3ncc4c(c3c2)n(C2CCOCC2)c(=O)n4C)cn1 [AZD0156]; details: max 3 µM
How it was run: as §1

Lapatinib = compound: CS(=O)(=O)CCNCc1ccc(-c2ccc3ncnc(Nc4ccc(OCc5cccc(F)c5)c(Cl)c4)c3c2)o1 [Lapatinib]; details: max 10 µM
How it was run: as §1

Gemcitabine = compound: Nc1ccn([C@@H]2O[C@H](CO)[C@@H](O)C2(F)F)c(=O)n1 [Gemcitabine]; details: max 0.3 µM
How it was run: as §1

AZD2811 = compound: CCN(CCO)CCCOc1ccc2c(Nc3cc(CC(=O)Nc4cccc(F)c4)[nH]n3)ncnc2c1 [AZD2811]; details: max 1 µM
How it was run: as §1

Doxorubicin = compound: COc1cccc2c1C(=O)c1c(O)c3c(c(O)c1C2=O)C[C@@](O)(C(=O)CO)C[C@@H]3O[C@H]1C[C@H](N)[C@H](O)[C@H](C)O1 [Doxorubicin]; details: max 1 µM
How it was run: as §1

Taselisib = compound: Cc1nc(-c2cn3c(n2)-c2ccc(-c4cnn(C(C)(C)C(N)=O)c4)cc2OCC3)n(C(C)C)n1 [Taselisib]; details: max 10 µM
How it was run: as §1

AZD8186 = compound: C[C@@H](Nc1cc(F)cc(F)c1)c1cc(C(=O)N(C)C)cc2c(=O)cc(N3CCOCC3)oc12 [AZD8186]; details: max 10 µM
How it was run: as §1

Etoposide = compound: COc1cc([C@@H]2c3cc4c(cc3[C@@H](O[C@@H]3O[C@@H]5CO[C@@H](C)O[C@H]5[C@H](O)[C@H]3O)[C@H]3COC(=O)[C@H]23)OCO4)cc(OC)c1O [Etoposide]; details: max 10 µM
How it was run: as §1

Prexasertib = compound: COc1cccc(OCCCN)c1-c1cc(Nc2cnc(C#N)cn2)n[nH]1 [Prexasertib]; details: max 1 µM
How it was run: as §1

Savolitinib = compound: C[C@@H](c1ccc2nccn2c1)n1nnc2ncc(-c3cnn(C)c3)nc21 [Savolitinib]; details: max 1 µM
How it was run: as §1

Crizotinib = compound: C[C@@H](Oc1cc(-c2cnn(C3CCNCC3)c2)cnc1N)c1c(Cl)ccc(F)c1Cl [Crizotinib]; details: max 10 µM
How it was run: as §1

Paclitaxel = compound: CC(=O)O[C@H]1C(=O)[C@@]2(C)[C@H]([C@H](OC(=O)c3ccccc3)[C@]3(O)C[C@H](OC(=O)[C@H](O)[C@@H](NC(=O)c4ccccc4)c4ccccc4)C(C)=C1C3(C)C)[C@]1(OC(C)=O)CO[C@@H]1C[C@@H]2O [Paclitaxel]; details: max 3 µM
How it was run: as §1

Carboplatin = compound: C1CC(C1)(C(=O)[O-])C(=O)[O-].N.N.[Pt+2] [Carboplatin]; details: max 10 µM
How it was run: as §1

[1] = compound: O=C(Nc1ccc2[nH]nc(-c3ccncc3)c2c1)[C@@H]1CCN(CC(=O)N2CCN(c3ccc(-c4ncccn4)cc3)CC2)C1; details: max 5 µM
How it was run: as §1

Trametinib = compound: CC(=O)Nc1cccc(-n2c(=O)n(C3CC3)c(=O)c3c(Nc4ccc(I)cc4F)n(C)c(=O)c(C)c32)c1 [Trametinib]; details: max 1 µM
How it was run: as §1

5-Fluorouracil = compound: O=c1[nH]cc(F)c(=O)[nH]1 [5-Fluorouracil]; details: max 20 µM
How it was run: as §1

SN-38 = compound: CCc1c2c(nc3ccc(O)cc13)-c1cc3c(c(=O)n1C2)COC(=O)[C@]3(O)CC [SN-38]; details: max 0.3 µM
How it was run: as §1

Venetoclax = compound: CC1(C)CCC(CN2CCN(c3ccc(C(=O)NS(=O)(=O)c4ccc(NCC5CCOCC5)c([N+](=O)[O-])c4)c(Oc4cnc5[nH]ccc5c4)c3)CC2)=C(c2ccc(Cl)cc2)C1 [Venetoclax]; details: max 1 µM
How it was run: as §1

AZD4320 = compound: CN(CC[C@H](CSC1=CC=CC=C1)NC2=C(C=C(C=C2)S(=O)(=O)NC(=O)C3=CC=C(C=C3)N4CCC(CC4)[C@H](C5=CC=CC=C5C6=CC=C(C=C6)Cl)O)S(=O)(=O)C(F)(F)F)CCO [AZD4320]; details: max 1 µM
How it was run: as §1

Selumetinib = compound: Cn1cnc2c(F)c(Nc3ccc(Br)cc3Cl)c(C(=O)NOCCO)cc21 [Selumetinib]; details: max 10 µM
How it was run: as §1

AZD1390 = compound: CC(C)n1c(=O)n(C)c2cnc3cc(F)c(-c4ccc(OCCCN5CCCCC5)nc4)cc3c21 [AZD1390]; details: max 0.3 µM
How it was run: as §1

Olaparib = compound: O=C(c1cc(Cc2n[nH]c(=O)c3ccccc23)ccc1F)N1CCN(C(=O)C2CC2)CC1 [Olaparib]; details: max 10 µM
How it was run: as §1

MK-2206 = compound: NC1(c2ccc(-c3nc4ccn5c(=O)[nH]nc5c4cc3-c3ccccc3)cc2)CCC1 [MK-2206]; details: max 10 µM
How it was run: as §1

AZD7648 = compound: Cc1cc2ncnn2cc1Nc1ncc2c(n1)n(C1CCOCC1)c(=O)n2C [AZD7648]; details: max 10 µM
How it was run: as §1

AZD5363 = compound: C1CN(CCC1(C(=O)N[C@@H](CCO)C2=CC=C(C=C2)Cl)N)C3=NC=NC4=C3C=CN4 [AZD5363]; details: max 10 µM
How it was run: as §1

Dasatinib = compound: CC1=C(C(=CC=C1)Cl)NC(=O)C2=CN=C(S2)NC3=CC(=NC(=N3)C)N4CCN(CC4)CCO [Dasatinib]; details: max 2 µM
How it was run: as §1

AZD5153 = compound: COc1nnc2ccc(N3CCC(c4ccc(OCCN5CCN(C)C(=O)[C@H]5C)cc4)CC3)nn12 [AZD5153]; details: max 1 µM
How it was run: as §1

Gefitinib = compound: COc1cc2ncnc(Nc3ccc(F)c(Cl)c3)c2cc1OCCCN1CCOCC1 [Gefitinib]; details: max 10 µM
How it was run: as §1

SG3199 = compound: CC1=CN2[C@@H](C1)C=NC3=CC(=C(C=C3C2=O)OC)OCCCCCOC4=C(C=C5C(=C4)N=C[C@@H]6CC(=CN6C5=O)C)OC [SG3199]; details: max 0.001 µM
How it was run: as §1

AZD1775 = compound: C=CCn1c(=O)c2cnc(Nc3ccc(N4CCN(C)CC4)cc3)nc2n1-c1cccc(C(C)(C)O)n1 [AZD1775]; details: max 3 µM
How it was run: as §1

AZD5991 = compound: Cc1c2c(nn1C)CSCc1cc(n(C)n1)CSc1cc(c3ccccc3c1)OCCCc1c(C(=O)O)n(C)c3c-2c(Cl)ccc13 [AZD5991]; details: max 1 µM
How it was run: as §1

AZD6738 = compound: C[C@@H]1COCCN1C2=NC(=NC(=C2)C3(CC3)[S@](=N)(=O)C)C4=C5C=CNC5=NC=C4 [AZD6738]; details: max 10 µM
How it was run: as §1

Palbociclib = compound: CC(=O)c1c(C)c2cnc(Nc3ccc(N4CCNCC4)cn3)nc2n(C2CCCC2)c1=O [Palbociclib]; details: max 10 µM
How it was run: as §1

SW1417 (Colorectal Carcinoma)
IC50, cell viability 72 h (Alisertib): > 10 µM
IC50, cell viability 72 h (SRA737): > 10 µM
IC50, cell viability 72 h (AZD0156): > 3000 nM
IC50, cell viability 72 h (Lapatinib): > 10 µM
IC50, cell viability 72 h (Gemcitabine): > 300 nM
IC50, cell viability 72 h (AZD2811): > 1000 nM
IC50, cell viability 72 h (Doxorubicin): > 1000 nM
IC50, cell viability 72 h (Taselisib): > 10 µM
IC50, cell viability 72 h (AZD8186): > 10 µM
IC50, cell viability 72 h (Etoposide): > 10 µM
IC50, cell viability 72 h (Prexasertib): 567 nM
IC50, cell viability 72 h (Savolitinib): > 1000 nM
IC50, cell viability 72 h (Crizotinib): > 10 µM
IC50, cell viability 72 h (Paclitaxel): 422 nM
IC50, cell viability 72 h (Carboplatin): > 10 µM
IC50, cell viability 72 h [1]: 1350 nM
IC50, cell viability 72 h (Trametinib): 51.5 nM
IC50, cell viability 72 h (5-Fluorouracil): > 20 µM
IC50, cell viability 72 h (SN-38): 182 nM
IC50, cell viability 72 h (Venetoclax): > 1000 nM
IC50, cell viability 72 h (AZD4320): > 1000 nM
IC50, cell viability 72 h (Selumetinib): 4.87 µM
IC50, cell viability 72 h (AZD1390): > 300 nM
IC50, cell viability 72 h (Olaparib): > 10 µM
IC50, cell viability 72 h (MK-2206): > 10 µM
IC50, cell viability 72 h (AZD7648): > 10 µM
IC50, cell viability 72 h (AZD5363): > 10 µM
IC50, cell viability 72 h (Dasatinib): > 2000 nM
IC50, cell viability 72 h (AZD5153): > 1000 nM
IC50, cell viability 72 h (Gefitinib): > 10 µM
IC50, cell viability 72 h (SG3199): > 1 nM
IC50, cell viability 72 h (AZD1775): > 3000 nM
IC50, cell viability 72 h (AZD5991): > 1000 nM
IC50, cell viability 72 h (AZD6738): > 10 µM
IC50, cell viability 72 h (Palbociclib): > 10 µM

WM-115 (Melanoma)
IC50, cell viability 72 h (Alisertib): > 10 µM
IC50, cell viability 72 h (SRA737): > 10 µM
IC50, cell viability 72 h (AZD0156): > 3000 nM
IC50, cell viability 72 h (Lapatinib): > 10 µM
IC50, cell viability 72 h (Gemcitabine): > 300 nM
IC50, cell viability 72 h (AZD2811): > 1000 nM
IC50, cell viability 72 h (Doxorubicin): 633 nM
IC50, cell viability 72 h (Taselisib): 7.27 µM
IC50, cell viability 72 h (AZD8186): 3.41 µM
IC50, cell viability 72 h (Etoposide): > 10 µM
IC50, cell viability 72 h (Prexasertib): 486 nM
IC50, cell viability 72 h (Savolitinib): > 1000 nM
IC50, cell viability 72 h (Crizotinib): > 10 µM
IC50, cell viability 72 h (Paclitaxel): 387 nM
IC50, cell viability 72 h (Carboplatin): > 10 µM
IC50, cell viability 72 h [1]: > 5000 nM
IC50, cell viability 72 h (Trametinib): 182 nM
IC50, cell viability 72 h (5-Fluorouracil): > 20 µM
IC50, cell viability 72 h (SN-38): > 300 nM
IC50, cell viability 72 h (Venetoclax): > 1000 nM
IC50, cell viability 72 h (AZD4320): > 1000 nM
IC50, cell viability 72 h (Selumetinib): > 10 µM
IC50, cell viability 72 h (AZD1390): > 300 nM
IC50, cell viability 72 h (Olaparib): > 10 µM
IC50, cell viability 72 h (MK-2206): > 10 µM
IC50, cell viability 72 h (AZD7648): > 10 µM
IC50, cell viability 72 h (AZD5363): > 10 µM
IC50, cell viability 72 h (Dasatinib): > 2000 nM
IC50, cell viability 72 h (AZD5153): > 1000 nM
IC50, cell viability 72 h (Gefitinib): > 10 µM
IC50, cell viability 72 h (SG3199): > 1 nM
IC50, cell viability 72 h (AZD1775): > 3000 nM
IC50, cell viability 72 h (AZD5991): > 1000 nM
IC50, cell viability 72 h (AZD6738): > 10 µM
IC50, cell viability 72 h (Palbociclib): > 10 µM
